Experimental data published in ChEMBL document CHEMBL4020759, “Sulfoximines as ATR inhibitors: Analogs of VE-821” (2017).
Calls of active or inactive are those of the source. The rule behind the calls is not given here.

Legend:
HOP-92 = assay: Growth inhibition of human HOP92 cells assessed as cell growth at 10 uM incubated for 48 hrs by sulforhodamine B assay; type: functional; settings: HOP-92, 48 h, read-out: Activity
HCT-15 = assay: Growth inhibition of human HCT15 cells assessed as cell growth at 10 uM incubated for 48 hrs by sulforhodamine B assay; type: functional; settings: HCT-15, 48 h, read-out: Activity
LOX IMVI = assay: Growth inhibition of human LOXIMVI cells assessed as cell growth at 10 uM incubated for 48 hrs by sulforhodamine B assay; type: functional; settings: read-out: Activity
HL-60(TB) = assay: Growth inhibition of human HL-60(TB) cells assessed as cell growth at 10 uM incubated for 48 hrs by sulforhodamine B assay; type: functional; settings: HL-60, 48 h, read-out: Activity
HCT-116 = assay: Growth inhibition of human HCT116 cells assessed as cell growth at 10 uM incubated for 48 hrs by sulforhodamine B assay; type: functional; settings: HCT-116, 48 h, read-out: Activity
EKVX = assay: Growth inhibition of human EKVX cells assessed as cell growth at 10 uM incubated for 48 hrs by sulforhodamine B assay; type: functional; settings: read-out: Activity
OVCAR-4 = assay: Growth inhibition of human OVCAR4 cells assessed as cell growth at 10 uM incubated for 48 hrs by sulforhodamine B assay; type: functional; settings: OVCAR-4, 48 h, read-out: Activity
PC-3 = assay: Growth inhibition of human PC3 cells assessed as cell growth at 10 uM incubated for 48 hrs by sulforhodamine B assay; type: functional; settings: PC-3, 48 h, read-out: Activity
UACC-257 = assay: Growth inhibition of human UACC257 cells assessed as cell growth at 10 uM incubated for 48 hrs by sulforhodamine B assay; type: functional; settings: UACC-257, 48 h, read-out: Activity
HCC 2998 = assay: Growth inhibition of human HCC2998 cells assessed as cell growth at 10 uM incubated for 48 hrs by sulforhodamine B assay; type: functional; settings: HCC 2998, 48 h, read-out: Activity
SF-268 = assay: Growth inhibition of human SF268 cells assessed as cell growth at 10 uM incubated for 48 hrs by sulforhodamine B assay; type: functional; settings: SF-268, 48 h, read-out: Activity
IGROV-1 = assay: Growth inhibition of human IGROV1 cells assessed as cell growth at 10 uM incubated for 48 hrs by sulforhodamine B assay; type: functional; settings: IGROV-1, 48 h, read-out: Activity
MCF7 = assay: Growth inhibition of human MCF7 cells assessed as cell growth at 10 uM incubated for 48 hrs by sulforhodamine B assay; type: functional; settings: MCF7, 48 h, read-out: Activity
BT-549 = assay: Growth inhibition of human BT549 cells assessed as cell growth at 10 uM incubated for 48 hrs by sulforhodamine B assay; type: functional; settings: BT-549, 48 h, read-out: Activity
SW-620 = assay: Growth inhibition of human SW620 cells assessed as cell growth at 10 uM incubated for 48 hrs by sulforhodamine B assay; type: functional; settings: SW-620, 48 h, read-out: Activity
[1] = target: Serine-protein kinase ATM (Homo sapiens) (UniProt Q13315); assay: Inhibition of ATM in human U2OS cells assessed as reduction in hydroxyurea-induced H2AX phosphorylation at Ser139 residue at 3 to 10 uM preincubated for 1 hr followed by hydroxyurea challenge measured after 2 hrs by Western blot analysis; type: cell-based
Chain of Serine-protein kinase ATM (Homo sapiens) (Q13315 whole entry): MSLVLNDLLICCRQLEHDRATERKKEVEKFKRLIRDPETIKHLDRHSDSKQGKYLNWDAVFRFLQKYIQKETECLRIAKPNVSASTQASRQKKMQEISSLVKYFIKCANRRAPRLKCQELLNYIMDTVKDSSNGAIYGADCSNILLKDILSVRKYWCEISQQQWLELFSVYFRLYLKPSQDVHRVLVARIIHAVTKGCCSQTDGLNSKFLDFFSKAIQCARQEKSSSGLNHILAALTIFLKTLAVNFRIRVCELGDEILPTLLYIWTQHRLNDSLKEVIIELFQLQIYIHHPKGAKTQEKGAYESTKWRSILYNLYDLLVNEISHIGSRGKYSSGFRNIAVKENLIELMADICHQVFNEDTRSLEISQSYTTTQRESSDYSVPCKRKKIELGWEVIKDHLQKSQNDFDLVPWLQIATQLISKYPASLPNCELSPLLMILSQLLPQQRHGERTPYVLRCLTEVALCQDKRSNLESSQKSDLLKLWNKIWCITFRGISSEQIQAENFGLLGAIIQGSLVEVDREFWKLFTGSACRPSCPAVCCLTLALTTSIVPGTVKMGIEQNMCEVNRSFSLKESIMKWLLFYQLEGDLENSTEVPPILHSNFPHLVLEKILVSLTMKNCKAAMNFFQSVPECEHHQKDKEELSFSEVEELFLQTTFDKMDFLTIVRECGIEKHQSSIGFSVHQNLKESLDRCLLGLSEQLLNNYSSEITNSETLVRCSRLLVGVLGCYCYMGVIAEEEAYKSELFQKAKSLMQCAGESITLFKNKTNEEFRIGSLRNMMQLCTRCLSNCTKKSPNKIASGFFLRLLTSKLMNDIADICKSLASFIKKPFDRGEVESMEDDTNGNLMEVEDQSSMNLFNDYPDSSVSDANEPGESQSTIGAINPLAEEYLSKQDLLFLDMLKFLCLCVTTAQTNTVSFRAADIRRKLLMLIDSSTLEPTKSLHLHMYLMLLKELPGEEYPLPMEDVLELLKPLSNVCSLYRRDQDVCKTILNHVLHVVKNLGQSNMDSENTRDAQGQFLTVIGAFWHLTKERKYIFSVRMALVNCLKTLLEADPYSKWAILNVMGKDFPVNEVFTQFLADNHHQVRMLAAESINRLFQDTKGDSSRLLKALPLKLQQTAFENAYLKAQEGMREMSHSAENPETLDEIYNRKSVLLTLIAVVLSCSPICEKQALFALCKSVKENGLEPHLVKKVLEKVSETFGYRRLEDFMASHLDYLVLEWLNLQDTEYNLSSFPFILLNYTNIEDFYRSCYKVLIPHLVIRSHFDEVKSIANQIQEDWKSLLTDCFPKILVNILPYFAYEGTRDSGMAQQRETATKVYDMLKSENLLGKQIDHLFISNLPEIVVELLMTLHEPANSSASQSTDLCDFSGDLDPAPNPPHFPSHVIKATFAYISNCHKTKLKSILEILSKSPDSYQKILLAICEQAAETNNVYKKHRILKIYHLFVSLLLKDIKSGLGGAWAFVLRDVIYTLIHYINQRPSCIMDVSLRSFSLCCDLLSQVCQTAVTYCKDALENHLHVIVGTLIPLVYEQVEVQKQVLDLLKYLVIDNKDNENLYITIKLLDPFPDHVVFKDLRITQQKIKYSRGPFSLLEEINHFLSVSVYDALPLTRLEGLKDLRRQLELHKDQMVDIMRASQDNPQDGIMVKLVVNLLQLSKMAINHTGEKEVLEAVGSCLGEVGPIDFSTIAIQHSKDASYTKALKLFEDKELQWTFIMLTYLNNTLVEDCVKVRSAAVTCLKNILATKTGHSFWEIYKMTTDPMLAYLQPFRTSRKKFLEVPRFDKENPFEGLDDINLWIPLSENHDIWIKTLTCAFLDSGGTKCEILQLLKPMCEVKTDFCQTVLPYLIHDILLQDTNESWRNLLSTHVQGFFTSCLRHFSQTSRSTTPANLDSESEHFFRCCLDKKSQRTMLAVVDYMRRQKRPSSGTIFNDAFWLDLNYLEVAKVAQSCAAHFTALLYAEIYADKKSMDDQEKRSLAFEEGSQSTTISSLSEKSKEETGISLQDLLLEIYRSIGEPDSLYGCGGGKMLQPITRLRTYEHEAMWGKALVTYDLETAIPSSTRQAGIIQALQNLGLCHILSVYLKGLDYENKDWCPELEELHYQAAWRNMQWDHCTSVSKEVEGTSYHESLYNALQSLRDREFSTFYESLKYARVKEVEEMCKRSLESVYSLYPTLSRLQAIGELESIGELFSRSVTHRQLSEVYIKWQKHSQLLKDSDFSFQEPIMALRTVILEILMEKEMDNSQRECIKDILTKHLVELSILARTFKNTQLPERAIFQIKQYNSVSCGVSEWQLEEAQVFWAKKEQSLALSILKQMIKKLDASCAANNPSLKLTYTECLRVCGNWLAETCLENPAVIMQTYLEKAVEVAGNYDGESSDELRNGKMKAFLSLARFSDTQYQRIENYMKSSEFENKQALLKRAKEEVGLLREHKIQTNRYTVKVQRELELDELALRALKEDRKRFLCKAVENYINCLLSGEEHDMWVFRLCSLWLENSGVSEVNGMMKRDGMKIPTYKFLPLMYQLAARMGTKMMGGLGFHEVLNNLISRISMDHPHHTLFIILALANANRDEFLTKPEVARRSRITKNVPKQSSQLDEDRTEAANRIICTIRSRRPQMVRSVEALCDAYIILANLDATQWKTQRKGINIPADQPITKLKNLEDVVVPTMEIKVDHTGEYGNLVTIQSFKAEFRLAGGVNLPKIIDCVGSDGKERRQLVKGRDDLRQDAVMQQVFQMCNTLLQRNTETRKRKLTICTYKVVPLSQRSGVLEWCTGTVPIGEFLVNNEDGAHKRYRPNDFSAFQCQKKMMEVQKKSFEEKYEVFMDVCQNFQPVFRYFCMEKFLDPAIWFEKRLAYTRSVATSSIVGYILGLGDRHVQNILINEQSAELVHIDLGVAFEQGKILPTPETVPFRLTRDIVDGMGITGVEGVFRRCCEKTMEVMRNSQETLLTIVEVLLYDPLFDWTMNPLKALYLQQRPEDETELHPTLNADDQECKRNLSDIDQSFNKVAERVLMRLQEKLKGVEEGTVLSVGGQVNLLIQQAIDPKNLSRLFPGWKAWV

OVCAR-8 = assay: Growth inhibition of human OVCAR8 cells assessed as cell growth at 10 uM incubated for 48 hrs by sulforhodamine B assay; type: functional; settings: OVCAR-8, 48 h, read-out: Activity
SNB-75 = assay: Growth inhibition of human SNB75 cells assessed as cell growth at 10 uM incubated for 48 hrs by sulforhodamine B assay; type: functional; settings: SNB-75, 48 h, read-out: Activity
TK-10 = assay: Growth inhibition of human TK10 cells assessed as cell growth at 10 uM incubated for 48 hrs by sulforhodamine B assay; type: functional; settings: TK-10, 48 h, read-out: Activity
SF-295 = assay: Growth inhibition of human SF295 cells assessed as cell growth at 10 uM incubated for 48 hrs by sulforhodamine B assay; type: functional; settings: SF-295, 48 h, read-out: Activity
NCI/ADR-RES = assay: Growth inhibition of human NCI/ADR-RES cells assessed as cell growth at 10 uM incubated for 48 hrs by sulforhodamine B assay; type: functional; settings: read-out: Activity
U-251 = assay: Growth inhibition of human U251 cells assessed as cell growth at 10 uM incubated for 48 hrs by sulforhodamine B assay; type: functional; settings: U-251, 48 h, read-out: Activity
OVCAR-5 = assay: Growth inhibition of human OVCAR5 cells assessed as cell growth at 10 uM incubated for 48 hrs by sulforhodamine B assay; type: functional; settings: OVCAR-5, 48 h, read-out: Activity
RPMI-8226 = assay: Growth inhibition of human RPMI8226 cells assessed as cell growth at 10 uM incubated for 48 hrs by sulforhodamine B assay; type: functional; settings: RPMI-8226, 48 h, read-out: Activity
K562 = assay: Growth inhibition of human K562 cells assessed as cell growth at 10 uM incubated for 48 hrs by sulforhodamine B assay; type: functional; settings: K562, 48 h, read-out: Activity
MDA-MB-435 = assay: Growth inhibition of human MDA-MB-435 cells assessed as cell growth at 10 uM incubated for 48 hrs by sulforhodamine B assay; type: functional; settings: MDA-MB-435, 48 h, read-out: Activity
NCI-H322M = assay: Growth inhibition of human NCI-H322M cells assessed as cell growth at 10 uM incubated for 48 hrs by sulforhodamine B assay; type: functional; settings: read-out: Activity
UACC-62 = assay: Growth inhibition of human UACC62 cells assessed as cell growth at 10 uM incubated for 48 hrs by sulforhodamine B assay; type: functional; settings: UACC-62, 48 h, read-out: Activity
SK-OV-3 = assay: Growth inhibition of human SKOV3 cells assessed as cell growth at 10 uM incubated for 48 hrs by sulforhodamine B assay; type: functional; settings: SK-OV-3, 48 h, read-out: Activity
HT-29 = assay: Growth inhibition of human HT-29 cells assessed as cell growth at 10 uM incubated for 48 hrs by sulforhodamine B assay; type: functional; settings: HT-29, 48 h, read-out: Activity
MDA-MB-468 = assay: Growth inhibition of human MDA-MB-468 cells assessed as cell growth at 10 uM incubated for 48 hrs by sulforhodamine B assay; type: functional; settings: MDA-MB-468, 48 h, read-out: Activity
HOP-62 = assay: Growth inhibition of human HOP62 cells assessed as cell growth at 10 uM incubated for 48 hrs by sulforhodamine B assay; type: functional; settings: HOP-62, 48 h, read-out: Activity
A549 = assay: Growth inhibition of human A549/ATCC cells assessed as cell growth at 10 uM incubated for 48 hrs by sulforhodamine B assay; type: functional; settings: A549, 48 h, read-out: Activity
NCI-H522 = assay: Growth inhibition of human NCI-H522 cells assessed as cell growth at 10 uM incubated for 48 hrs by sulforhodamine B assay; type: functional; settings: NCI-H522, 48 h, read-out: Activity

| Compound | growth at 10 µM (HOP-92) | growth at 10 µM (HCT-15) | growth at 10 µM (LOX IMVI) | growth at 10 µM (HL-60(TB)) | growth at 10 µM (HCT-116) | growth at 10 µM (EKVX) | growth at 10 µM (OVCAR-4) | growth at 10 µM (PC-3) | growth at 10 µM (UACC-257) | growth at 10 µM (HCC 2998) | growth at 10 µM (SF-268) | growth at 10 µM (IGROV-1) | growth at 10 µM (MCF7) | growth at 10 µM (BT-549) | growth at 10 µM (SW-620) | inhibition [1] | growth at 10 µM (OVCAR-8) | growth at 10 µM (SNB-75) | growth at 10 µM (TK-10) | growth at 10 µM (SF-295) | other results |
| --- | --- | --- | --- | --- | --- | --- | --- | --- | --- | --- | --- | --- | --- | --- | --- | --- | --- | --- | --- | --- | --- |
| CS(=O)(=NC#N)c1ccc(-c2cnc(N)c(C(=O)Nc3ccccc3)n2)cc1 (stereo not drawn) | 106% | 63.2% | 66.5% | 108% | 86.8% | 88.1% | 97% | 90.2% | 102% | 105% | 87.7% | 59.8% | 45.5% | 73.4% | 109% | inactive | 96.8% | 56.9% | 97.4% | 99.2% | growth at 10 µM (NCI/ADR-RES): 96.9%; growth at 10 µM (U-251): 68.5%; growth at 10 µM (OVCAR-5): 163%; growth at 10 µM (RPMI-8226): 105%; growth at 10 µM (K562): 70.8%; growth at 10 µM (MDA-MB-435): 87.7%; growth at 10 µM (NCI-H322M): 78.6%; growth at 10 µM (UACC-62): 74.7%; growth at 10 µM (SK-OV-3): 56.8%; growth at 10 µM (HT-29): 79.9%; growth at 10 µM (MDA-MB-468): 96.7%; growth at 10 µM (HOP-62): 97%; growth at 10 µM (A549): 63.1%; growth at 10 µM (NCI-H522): 86.8% |
| C/S(=N\C#N)c1ccc(-c2cnc(N)c(C(=O)Nc3ccccc3)n2)cc1 (stereo not drawn) | 93.4% | 64.2% | 77.8% | 79.2% | 73.1% | 107% | 87.3% | 86% | 106% | 109% | 88.4% | 56.9% | 75.7% | 83.5% | 85.9% | inactive | 102% | 65.2% | 93.6% | 114% | growth at 10 µM (NCI/ADR-RES): 108%; growth at 10 µM (U-251): 93.2%; growth at 10 µM (OVCAR-5): 120%; growth at 10 µM (RPMI-8226): 101%; growth at 10 µM (K562): 62.2%; growth at 10 µM (MDA-MB-435): 84%; growth at 10 µM (NCI-H322M): 71.3%; growth at 10 µM (UACC-62): 82.2%; growth at 10 µM (SK-OV-3): 68%; growth at 10 µM (HT-29): 76.3%; growth at 10 µM (MDA-MB-468): 84.6%; growth at 10 µM (HOP-62): 110%; growth at 10 µM (A549): 85.4%; growth at 10 µM (NCI-H522): 77.2% |
